Here are results for 14 compounds from ChEMBL document CHEMBL1201862, “PubChem BioAssay data set” (2004).

Each structure is given as a SMILES string.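 Grown in 96-well plates, cells were treated for 48 hours with each compound at five concentrations. Insufficient inhibition: endpoint recorded as highest concentration tested. GI50 marks 50% less growth.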 Calls of active or inactive are those of the source. Rule as the data show it: active = GI50 up to about 1.1 µM and inactive = higher.

Holding throughout (assay): DTP human tumour cell line panel, 48 h
Assay [1] concerns SK-MEL-5.
Assay [2] relates to SK-OV-3.
Assay [3] relates to PC-3.
Assay [4] deals with SK-MEL-2.
Assay [5] has as its system IGROV-1.
The subject of assay [6] is OVCAR-5.
Assay [7] relates to Malme-3M.
The subject of assay [8] is MDA-MB-435.
Assay [9] deals with SNB-19.
The test system of assay [10] is Hs-578T.
In assay [11] the test system is A498.
For assay [12], the system named is HCC 2998.
Assay [13] relates to K562.
Assay [14] deals with SF-268.
The subject of assay [15] is NCI-H522.
Assay [16] deals with KM12.

Broadly, the GI50 is the concentration giving 50% growth inhibition. In the case of `Nc1nc(O)c(N)c(NCCOCP(=O)(O)O)n1`, the GI50 in assay [1], in assay [2], in assay [3], in assay [4], in assay [5] and in assay [6] was > 100 µM (inactive) each time. The GI50 in assay [7], in [8], in [9], in [10], in [11] and in [12] was > 100 µM (inactive) in each case. The GI50 in assay [13] and in assay [14] was > 100 µM (inactive) each time.

Turning to `O=C1NNC(=O)c2ccccc2SSc2ccccc2C(=O)NNC(=O)c2ccccc2SSc2ccccc21`, the GI50 in assay [1] was 26.9 µM (inactive); in assay [2], 23.3 µM (inactive); in assay [3], 19.5 µM (inactive); in assay [4], 26.8 µM (inactive); in assay [15], 35.5 µM (inactive); in [5], 9.25 µM (inactive). The GI50 was 16.9 µM (inactive) in assay [6]; 15.6 µM (inactive) in assay [7]; 39 µM (inactive) in assay [8]; 25.9 µM (inactive) in assay [9]; > 50 µM (inactive) in assay [10]; > 100 µM (inactive) in assay [12]. The GI50 was 12.9 µM (inactive) in assay [13], 22.5 µM (inactive) in assay [16] and 5.31 µM (inactive) in assay [14].

`O=C(O)c1nnsc1-c1csnn1`: the GI50 in assay [1], in assay [2], in assay [3], in assay [4], in assay [15] and in assay [5] was > 100 µM (inactive) each time. Further, the GI50 in assay [6], in assay [7], in assay [8], in [9], in [10] and in [11] was > 100 µM (inactive) throughout. Moreover, the GI50 in assay [13], in [16] and in assay [14] was > 100 µM (inactive) each time.

With `COc1cccc2c3cccc(OC)c3c3[nH]cnc3c12`, the GI50 in assay [2] is 18.7 µM (inactive); in assay [3] it was 2.03 µM (inactive); in assay [4] it was 20.1 µM (inactive); in assay [15], 1.55 µM (inactive); in [5] it was 1.76 µM (inactive); in [6] it was 5.37 µM (inactive). Further, the GI50 was 3.88 µM (inactive) in [7]; 2.06 µM (inactive) in [8]; 5.01 µM (inactive) in [9]; 0.394 µM (active) in assay [10]; 18.1 µM (inactive) in assay [11]; 3.46 µM (inactive) in assay [12]. The GI50 was 2.08 µM (inactive) in assay [13], 2.02 µM (inactive) in [16] and 4.54 µM (inactive) in assay [14].

With `C[C@H]1C(=O)C2=C[C@H]1CCC(=O)[C@]1(C)CCCC(C)(C)[C@H]1C[C@H]2O`, the GI50 in assay [2] is 39.6 µM (inactive); in assay [3] it was 33.3 µM (inactive); in assay [4], > 100 µM (inactive); in [15], 0.986 µM (active); in assay [5], 37.9 µM (inactive); in assay [6], 25.4 µM (inactive). Also, the GI50 in assay [7] is 20.6 µM (inactive); in assay [8], 31.2 µM (inactive); in [9], > 100 µM (inactive); in [10], 19 µM (inactive); in assay [11], 12.1 µM (inactive); in assay [13], 12.4 µM (inactive). For the same compound, the values for the GI50 in assay [16] and in assay [14] were 19 µM (inactive) and 20.5 µM (inactive), respectively.

In the case of `COc1cc(OC)c(C/C=C/c2ccccc2)cc1O`, the GI50 in [1] was 15.8 µM (inactive); in assay [3], 17.1 µM (inactive); in assay [4], 19.4 µM (inactive); in assay [15], 12.6 µM (inactive); in assay [5], 16.3 µM (inactive); in [6], 26.6 µM (inactive). In addition, the GI50 in assay [7] was 16.2 µM (inactive); in [8], 17 µM (inactive); in [9] it was 15.9 µM (inactive); in assay [10], 16.8 µM (inactive); in assay [11], 14.8 µM (inactive); in assay [12], 16.3 µM (inactive). Moreover, the GI50 was 14.4 µM (inactive) in assay [13], 17.7 µM (inactive) in assay [16] and 16.7 µM (inactive) in [14].

In the case of `N[C@@H](Cc1ccccc1)C(=O)N1CCC[C@@H]1P(=O)(Oc1ccccc1)Oc1ccccc1`, the GI50 in assay [1] is 78.2 µM (inactive); in [2], > 100 µM (inactive); in assay [3], 33.6 µM (inactive); in assay [4], > 100 µM (inactive); in [5] it was > 100 µM (inactive); in assay [6], > 100 µM (inactive). In addition, the GI50 in assay [7] is > 100 µM (inactive); in [8], > 100 µM (inactive); in [9], > 100 µM (inactive); in assay [10], > 100 µM (inactive); in assay [11] it was > 100 µM (inactive); in [12], 39.3 µM (inactive). Also, the GI50 in assay [13] was 77.8 µM (inactive); in assay [16], > 100 µM (inactive); in assay [14], > 100 µM (inactive).

For `Nc1ncn2c(n1)nc1ccccc12`, the GI50 in assay [1], in [2], in [3], in [4], in assay [15] and in assay [5] was > 100 µM (inactive) throughout. For the same compound, the GI50 in [6] was > 100 µM (inactive); in [7], > 100 µM (inactive); in assay [8] it was > 100 µM (inactive); in assay [9], > 100 µM (inactive); in assay [10] it was > 100 µM (inactive); in assay [11], 57 µM (inactive). The GI50 in assay [13], in assay [16] and in assay [14] was > 100 µM (inactive) in each case.

For the compound `CC1(C)C(O)c2ccccc2OC1N1CCN(C2Oc3ccccc3C(O)C2(C)C)CC1` (configuration not stated), the GI50 in assay [1], in assay [2], in assay [3], in [15], in assay [5] and in [6] was > 100 µM (inactive) in each case. In addition, the GI50 in [7] was > 100 µM (inactive); in assay [8], > 100 µM (inactive); in assay [9], > 100 µM (inactive); in [10], > 100 µM (inactive); in assay [11], 30 µM (inactive); in assay [12] it was > 100 µM (inactive). Moreover, the GI50 in assay [13], in assay [16] and in assay [14] was > 100 µM (inactive) throughout.

Regarding `CC(C)(C)OC(=O)NC1CCCC1C(=O)C1=CCCC1` (configuration not stated), the GI50 in [1] is 65 µM (inactive); in assay [2], > 100 µM (inactive); in assay [3] it was > 100 µM (inactive); in [4] it was > 100 µM (inactive); in [5] it was 33.4 µM (inactive); in [6], > 100 µM (inactive). For the same compound, the GI50 was 90.6 µM (inactive) in assay [8]; > 100 µM (inactive) in assay [9]; 44 µM (inactive) in assay [10]; > 100 µM (inactive) in assay [11]; 88.7 µM (inactive) in assay [12]; > 100 µM (inactive) in assay [13]. For the same compound, the GI50 in assay [16] is 92 µM (inactive); in assay [14], > 100 µM (inactive).

As for `COc1ccc(-c2cc(-c3ccc(Nc4ccnc5cc(C(F)(F)F)ccc45)cc3)[nH]c(=O)c2C#N)cc1`, the GI50 was 99.8 µM (inactive) in assay [1]; > 100 µM (inactive) in [3]; > 50.6 µM (inactive) in [4]; > 100 µM (inactive) in assay [15]; > 81.5 µM (inactive) in assay [5]; > 66.5 µM (inactive) in assay [6]. Further, the GI50 is > 100 µM (inactive) in assay [7]; 39.6 µM (inactive) in assay [8]; 16.4 µM (inactive) in [9]; 10.1 µM (inactive) in assay [10]; > 40 µM (inactive) in assay [11]; > 100 µM (inactive) in assay [12]. The figures for the GI50 in assay [13], in assay [16] and in [14] were 33.8 µM (inactive), > 100 µM (inactive) and > 41.8 µM (inactive), respectively.

Regarding `O=[N+]([O-])c1ccc(C(c2c[nH]c3ccccc23)c2c[nH]c3ccccc23)cc1`, the GI50 is 5.97 µM (inactive) in assay [1]; 16.8 µM (inactive) in [2]; 12.3 µM (inactive) in assay [3]; 7.31 µM (inactive) in assay [4]; 23.6 µM (inactive) in assay [6]; 15.5 µM (inactive) in assay [7]. Moreover, the GI50 in assay [8] was 13.3 µM (inactive); in assay [9] it was 15.7 µM (inactive); in assay [10], 19 µM (inactive); in assay [11], 16.1 µM (inactive); in assay [12] it was 13.2 µM (inactive); in assay [13], 6.61 µM (inactive). In addition, the GI50 in [16] is 6.24 µM (inactive); in assay [14], 8.85 µM (inactive).

As to `Cc1ccc(S(=O)(=O)NNC(=O)Nc2ccc([N+](=O)[O-])cc2)cc1`, the GI50 is 29 µM (inactive) in assay [1]; 26.1 µM (inactive) in assay [3]; > 100 µM (inactive) in assay [4]; 26.5 µM (inactive) in [15]; 35.2 µM (inactive) in assay [5]; > 100 µM (inactive) in assay [6]. In addition, the GI50 in [7] was 76 µM (inactive); in assay [8], 55 µM (inactive); in assay [9] it was 69.5 µM (inactive); in [10], 34.6 µM (inactive); in [11] it was 37.8 µM (inactive); in assay [12], 64.9 µM (inactive). Moreover, the GI50 in assay [13] is 38.4 µM (inactive); in assay [16] it was 23.8 µM (inactive); in assay [14], 67.6 µM (inactive).

Regarding `CCOP(=O)(OCC)/C(C#N)=C/c1ccc(-c2cc(C(F)(F)F)cc(C(F)(F)F)c2)o1`, the GI50 is 11.7 µM (inactive) in assay [3]; 20.3 µM (inactive) in assay [4]; 10.4 µM (inactive) in [15]; 13.3 µM (inactive) in assay [6]; 14 µM (inactive) in assay [8]; 16 µM (inactive) in assay [9]. The GI50 in assay [10] is 25.1 µM (inactive); in assay [11] it was 12.4 µM (inactive); in assay [12] it was 8.45 µM (inactive); in assay [13], 3.3 µM (inactive); in assay [14], 15.2 µM (inactive).
